Source: PubChem BioAssay (NCI)
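1) Cells in 96-well plates. 2) Compound, 48 h, 5 concentrations. 3) Linear interpolation between surrounding doses. 4) Unreached endpoint = highest concentration. TGI is the concentration that stops growth completely.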

Columns and labels:
Experiment in all cases: inhibition of tumour cell growth, NCI panel, 48 h
RPMI-8226 leukemia = tested on: RPMI-8226 leukemia
EKVX NSCLC = tested on: EKVX NSCLC
M14 melanoma = tested on: M14 melanoma
OVCAR-8 ovarian = tested on: OVCAR-8 ovarian
A549 NSCLC = tested on: A549 NSCLC
A498 renal = tested on: A498 renal
CCRF-CEM leukemia = tested on: CCRF-CEM leukemia
OVCAR-5 ovarian = tested on: OVCAR-5 ovarian
BT-549 breast = tested on: BT-549 breast
COLO 205 colon = tested on: COLO 205 colon
SN12C renal = tested on: SN12C renal
NCI-H460 lung = tested on: NCI-H460 lung
K-562 leukemia = tested on: K-562 leukemia
HS 578T breast = tested on: HS 578T breast
SNB-19 CNS = tested on: SNB-19 CNS
MDA-MB-231 breast = tested on: MDA-MB-231 breast
MOLT-4 leukemia = tested on: MOLT-4 leukemia
U251 CNS = tested on: U251 CNS
SK-MEL-2 melanoma = tested on: SK-MEL-2 melanoma
PC-3 prostate = tested on: PC-3 prostate
OVCAR-4 ovarian = tested on: OVCAR-4 ovarian
SK-MEL-5 melanoma = tested on: SK-MEL-5 melanoma
UO-31 renal = tested on: UO-31 renal
CAKI-1 renal = tested on: CAKI-1 renal
SW-620 colon = tested on: SW-620 colon
OVCAR-3 ovarian = tested on: OVCAR-3 ovarian
LOX IMVI melanoma = tested on: LOX IMVI melanoma
ACHN renal = tested on: ACHN renal
UACC-257 melanoma = tested on: UACC-257 melanoma
SNB-75 CNS = tested on: SNB-75 CNS
HCT-15 colon = tested on: HCT-15 colon
RXF 393 renal = tested on: RXF 393 renal
NCI/ADR-RES ovarian = tested on: NCI/ADR-RES ovarian
MDA-N = tested on: MDA-N
NCI-H522 lung = tested on: NCI-H522 lung
KM12 colon = tested on: KM12 colon
NCI-H23 lung = tested on: NCI-H23 lung
HCT-116 colon = tested on: HCT-116 colon
HT29 colon = tested on: HT29 colon
SF-539 CNS = tested on: SF-539 CNS
T-47D breast = tested on: T-47D breast
UACC-62 melanoma = tested on: UACC-62 melanoma
DU-145 prostate = tested on: DU-145 prostate
MCF7 breast = tested on: MCF7 breast
SK-MEL-28 melanoma = tested on: SK-MEL-28 melanoma
MALME-3M melanoma = tested on: MALME-3M melanoma
HOP-92 NSCLC = tested on: HOP-92 NSCLC
SF-295 CNS = tested on: SF-295 CNS
786-0 renal = tested on: 786-0 renal
IGROV1 ovarian = tested on: IGROV1 ovarian
MDA-MB-435 = tested on: MDA-MB-435
HCC-2998 colon = tested on: HCC-2998 colon
SK-OV-3 ovarian = tested on: SK-OV-3 ovarian
NCI-H226 lung = tested on: NCI-H226 lung
SR leukemia = tested on: SR leukemia
SF-268 CNS = tested on: SF-268 CNS
HOP-62 NSCLC = tested on: HOP-62 NSCLC
HL-60(TB) leukemia = tested on: HL-60(TB) leukemia
TK-10 renal = tested on: TK-10 renal

O=C(C/C(=N/O)C(=O)NC1=C(Cl)C(=O)c2ccccc2C1=O)CC(c1ccccc1)c1c(O)c2ccccc2oc1=O (centres undefined)
TGI (RPMI-8226 leukemia): > 100 µM | TGI (EKVX NSCLC): 42.3 µM | TGI (M14 melanoma): 18.6 µM | TGI (OVCAR-8 ovarian): > 100 µM | TGI (A549 NSCLC): 35.3 µM | TGI (A498 renal): > 100 µM | TGI (CCRF-CEM leukemia): > 100 µM | TGI (OVCAR-5 ovarian): 32.8 µM | TGI (BT-549 breast): > 100 µM | TGI (COLO 205 colon): 33.7 µM | TGI (SN12C renal): 23.5 µM | TGI (NCI-H460 lung): 16 µM | TGI (K-562 leukemia): > 100 µM | TGI (HS 578T breast): 50.6 µM | TGI (SNB-19 CNS): > 100 µM | TGI (MDA-MB-231 breast): 26.5 µM | TGI (MOLT-4 leukemia): > 100 µM | TGI (U251 CNS): > 100 µM | TGI (SK-MEL-2 melanoma): 32.4 µM | TGI (PC-3 prostate): > 100 µM | TGI (OVCAR-4 ovarian): 22.2 µM | TGI (SK-MEL-5 melanoma): 2.38 µM | TGI (UO-31 renal): 44.5 µM | TGI (CAKI-1 renal): 32.6 µM | TGI (SW-620 colon): > 100 µM | TGI (OVCAR-3 ovarian): 15.2 µM | TGI (LOX IMVI melanoma): > 100 µM | TGI (ACHN renal): 65.7 µM | TGI (UACC-257 melanoma): > 100 µM | TGI (SNB-75 CNS): 19 µM | TGI (HCT-15 colon): 14.4 µM | TGI (RXF 393 renal): 35 µM | TGI (NCI/ADR-RES ovarian): > 100 µM | TGI (MDA-N): 3.09 µM | TGI (NCI-H522 lung): 52.9 µM | TGI (KM12 colon): 17.8 µM | TGI (NCI-H23 lung): 72.1 µM | TGI (HCT-116 colon): 20.6 µM | TGI (HT29 colon): 44.3 µM | TGI (SF-539 CNS): 31.7 µM | TGI (T-47D breast): 38.1 µM | TGI (UACC-62 melanoma): > 100 µM | TGI (DU-145 prostate): 11.2 µM | TGI (MCF7 breast): 26.8 µM | TGI (SK-MEL-28 melanoma): > 100 µM | TGI (MALME-3M melanoma): 4.55 µM | TGI (HOP-92 NSCLC): > 100 µM | TGI (SF-295 CNS): 22.8 µM | TGI (786-0 renal): > 100 µM | TGI (IGROV1 ovarian): > 100 µM | TGI (MDA-MB-435): 4.72 µM | TGI (HCC-2998 colon): 25.6 µM | TGI (SK-OV-3 ovarian): > 100 µM | TGI (NCI-H226 lung): 20.3 µM | TGI (SR leukemia): > 100 µM | TGI (SF-268 CNS): 42.5 µM

OC1(c2ccccc2)CCN(Cc2c[nH]c3ccccc23)CC1
TGI (RPMI-8226 leukemia): > 100 µM | TGI (EKVX NSCLC): > 100 µM | TGI (M14 melanoma): 35 µM | TGI (OVCAR-8 ovarian): > 100 µM | TGI (HOP-62 NSCLC): > 100 µM | TGI (A549 NSCLC): > 100 µM | TGI (A498 renal): > 100 µM | TGI (CCRF-CEM leukemia): > 100 µM | TGI (OVCAR-5 ovarian): > 100 µM | TGI (BT-549 breast): > 100 µM | TGI (COLO 205 colon): 31.7 µM | TGI (SN12C renal): > 100 µM | TGI (NCI-H460 lung): > 100 µM | TGI (K-562 leukemia): > 100 µM | TGI (HS 578T breast): > 100 µM | TGI (SNB-19 CNS): > 100 µM | TGI (MDA-MB-231 breast): > 100 µM | TGI (MOLT-4 leukemia): > 100 µM | TGI (U251 CNS): > 100 µM | TGI (SK-MEL-2 melanoma): 36.1 µM | TGI (PC-3 prostate): > 100 µM | TGI (OVCAR-4 ovarian): > 100 µM | TGI (SK-MEL-5 melanoma): > 100 µM | TGI (UO-31 renal): > 100 µM | TGI (CAKI-1 renal): > 100 µM | TGI (SW-620 colon): > 100 µM | TGI (OVCAR-3 ovarian): > 100 µM | TGI (LOX IMVI melanoma): > 100 µM | TGI (HL-60(TB) leukemia): > 100 µM | TGI (ACHN renal): > 100 µM | TGI (UACC-257 melanoma): 40.4 µM | TGI (SNB-75 CNS): > 100 µM | TGI (HCT-15 colon): > 100 µM | TGI (RXF 393 renal): > 100 µM | TGI (NCI/ADR-RES ovarian): > 100 µM | TGI (MDA-N): > 100 µM | TGI (NCI-H522 lung): > 100 µM | TGI (KM12 colon): > 100 µM | TGI (NCI-H23 lung): > 100 µM | TGI (HCT-116 colon): > 100 µM | TGI (HT29 colon): > 100 µM | TGI (SF-539 CNS): > 100 µM | TGI (T-47D breast): > 100 µM | TGI (UACC-62 melanoma): > 100 µM | TGI (DU-145 prostate): > 100 µM | TGI (MCF7 breast): > 100 µM | TGI (SK-MEL-28 melanoma): 56.9 µM | TGI (MALME-3M melanoma): 52.4 µM | TGI (HOP-92 NSCLC): > 100 µM | TGI (SF-295 CNS): > 100 µM | TGI (786-0 renal): > 100 µM | TGI (IGROV1 ovarian): > 100 µM | TGI (MDA-MB-435): > 100 µM | TGI (HCC-2998 colon): 31.6 µM | TGI (SK-OV-3 ovarian): > 100 µM | TGI (NCI-H226 lung): > 100 µM | TGI (TK-10 renal): > 100 µM | TGI (SF-268 CNS): > 100 µM
